Experimental data as given in ChEMBL document CHEMBL4706535, “The development of Coronavirus 3C-Like protease (3CL) inhibitors from 2010 to 2020” (Eur J Med Chem, 2020).

Test system: SARS-CoV-2
Test: microbe, parasite or virus in culture
Settings: Severe acute respiratory syndrome coronavirus 2, nCoV-2019 BetaCoV/Wuhan/WIV04/2019, Vero C1008

Compound `O=C[C@H](C[C@@H]1CCNC1=O)NC(=O)[C@H](Cc1cccc(F)c1)NC(=O)c1cc2ccccc2[nH]1` has an EC50 of 720 nM.
